# Measurements taken from US20100166727A1, “S-Adenosylmethionine And Methylthioadensosine In Chemoprevention And Treatment Of Colon Polyps And Cancer” (UNIVERSITY OF SOUTHERN CALIFORNIA, priority 2007, published 2010).
# How the values were obtained:
# human GSS promoter = assay: Human GSS promoter activity in HT-29 cells; assay type: cell-based; settings: SAMe or MTA treatment as for MAT2A promoter
# Excerpt: The human MAT2A promoter construct[…] and GSS promoter construct −1686/−46-LUC were previously described (33, 34, 50), and subcloned in the sense orientation upstream of the luciferase coding sequence of the pGL-3 enhancer vector (Promega). Both promoter constructs contain maximal promoter activity. Specificity of SAMe and MTA on promoter activity was examined by transfecting HT-29 cells with the GSS promoter construct and treating cells with SAMe or MTA as above.
# MAT2A = assay: Intestinal MAT2A expression in mice given SAMe or MTA in drinking water; assay type: in vivo
# Procedure: FIG. 30. Effects of oral SAMe and MTA on colonic mRNA levels of MAT2A, MAT2 β, and cFLIPL. Mice were fed SAMe (150 to 450 mg/kg/d) or MTA (75 or 150 mg/kg/d) in drinking water for 6 days. Colonic mucosa was scrapped off and gene expression measured by real-time PCR.
# Three-month old male C57/B6 mice were fed ad libitum a standard diet (Harland Tekiad irradiated mouse diet 7912, Madison, Wis.), caged individually and had free access to water supplemented with SAMe ([…]), MTA (75 mg/kg/d), phosphate buffered saline (vehicle for SAMe) or DMSO (0.2%, vehicle for MTA) for 6 days. SAMe and MTA were made fresh daily. The amount of water intake, body weight, and animal behavior were closely monitored. After 6 days, animals were sacrificed, intestine was cut open along the longitudinal axis, and mucosa was stripped from the intestine (46). Mucosa was weighed and a portion processed for SAMe measurement as described below, the rest snap frozen for subsequent RNA extraction.
# Total RNA was isolated by the EZgeno total RNA isolation kit (Genemega, San Giego, Calif.), and subjected to reverse transcription (RT) by using M-MLV Reverse transcriptase (Invitrogen). 2 μl of RT product was subjected to quantitative real-time PCR analysis. The primers and TaqMan probes for MAT2A, MAT2β and Universal PCR Master Mix were purchased from ABI (Foster City, Calif.). Hypoxanthine phosphoribosyl-transferase 1 (HPRT1) and ubiquitin C (UBC) were used as housekeeping genes (48). The thermal profile consisted of 1 cycle at 95° C. for 15 minutes followed by 40 cycles at 95° C. for 15 seconds and at 60° C. for 1 minute. The expression of MAT2A and MAT2β was checked by normalizing the Ct of MAT2A and MAT2β to that of the control housekeeping gene (HPRT1 or UBC) (49). The delta Ct obtained was used to find the relative expression of MAT genes according to the formula: Relative expression=2·^ΔCt, where ΔCt=ΔCt of MAT genes in colon cancer or treated cells—ΔCt of MAT genes in normal colon or control cells.
# MAT II = MAT II (Rattus norvegicus, UniProt P18298); settings: cited from earlier work
# MAT I = MAT I (Rattus norvegicus, UniProt P13444); settings: cited from earlier work
# [1] = 75 mg/kg/d in drinking water, six days
# [2] = 150 mg/kg/d in drinking water, six days
# Chain of MAT II (P18298 whole entry): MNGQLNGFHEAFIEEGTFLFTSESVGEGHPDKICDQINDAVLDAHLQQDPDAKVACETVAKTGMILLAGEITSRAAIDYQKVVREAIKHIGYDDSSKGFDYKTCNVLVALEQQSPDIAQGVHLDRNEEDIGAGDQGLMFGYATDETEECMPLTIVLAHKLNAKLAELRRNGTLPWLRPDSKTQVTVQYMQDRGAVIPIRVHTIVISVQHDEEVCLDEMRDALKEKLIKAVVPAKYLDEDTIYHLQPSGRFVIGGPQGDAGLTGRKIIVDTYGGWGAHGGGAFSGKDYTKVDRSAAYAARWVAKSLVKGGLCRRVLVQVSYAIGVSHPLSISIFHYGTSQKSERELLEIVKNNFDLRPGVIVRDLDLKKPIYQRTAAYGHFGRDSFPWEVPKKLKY
# Chain of MAT II (Q5U2R0 whole entry partner): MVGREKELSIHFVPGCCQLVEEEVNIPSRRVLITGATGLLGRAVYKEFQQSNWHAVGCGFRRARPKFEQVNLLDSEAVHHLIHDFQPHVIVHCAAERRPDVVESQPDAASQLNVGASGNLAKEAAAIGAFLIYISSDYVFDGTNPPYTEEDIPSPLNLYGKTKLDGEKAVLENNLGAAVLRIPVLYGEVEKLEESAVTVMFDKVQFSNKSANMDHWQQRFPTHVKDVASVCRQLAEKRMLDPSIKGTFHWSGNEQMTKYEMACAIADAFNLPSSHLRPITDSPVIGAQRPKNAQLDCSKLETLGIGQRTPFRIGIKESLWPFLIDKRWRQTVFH
# Chain of MAT I (P13444 whole entry): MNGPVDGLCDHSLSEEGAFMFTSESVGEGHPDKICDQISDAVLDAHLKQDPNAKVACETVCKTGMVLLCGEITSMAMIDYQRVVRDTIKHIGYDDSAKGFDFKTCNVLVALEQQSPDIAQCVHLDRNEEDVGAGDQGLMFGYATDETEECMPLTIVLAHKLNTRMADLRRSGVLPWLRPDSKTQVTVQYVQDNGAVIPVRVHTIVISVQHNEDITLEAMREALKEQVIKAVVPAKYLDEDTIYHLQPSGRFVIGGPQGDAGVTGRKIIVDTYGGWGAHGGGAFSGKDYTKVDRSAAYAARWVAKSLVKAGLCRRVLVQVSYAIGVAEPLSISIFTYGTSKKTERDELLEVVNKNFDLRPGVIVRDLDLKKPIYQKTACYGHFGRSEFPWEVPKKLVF
smiles,measurement,setting,value
"C[S+](CC[C@H](N)C(=O)O)C[C@H]1O[C@@H](n2cnc3c(N)ncnc32)[C@H](O)[C@@H]1O (some centres unmarked) [SAMe, S-adenosylmethionine]",human GSS promoter activity,human GSS promoter,no influence on the human GSS promoter activity
same,"MAT2A expression, colon",MAT2A; [1],128 ± 20 % of control MAT2A mRNA levels
same,"MAT2A expression, proximal small intestine",MAT2A; [1],99 ± 2 % of control MAT2A mRNA levels
same,"MAT2A expression, colon",MAT2A; [2],85 ± 10 % of control MAT2A mRNA levels
same,"MAT2A expression, proximal small intestine",MAT2A; [2],81 ± 4 % of control MAT2A mRNA levels
same,decrease of MAT2A expression in proximal small intestine,"MAT2A; SAMe 150 mg/kg/d, MTA 75 mg/kg/d, six days",20%
same,inhibition in colonic MAT2A mRNA level,"MAT2A; SAMe 450 mg/kg/d (highest dose), 6 days",75%
same,Inhibition by SAMe,MAT II; MAT II,Yes
same,IC50,"MAT II; read-out: IC50, inhibition of MAT II",60 µM
same,Inhibition by SAMe,MAT I; MAT I,No
same,IC50,"MAT I; read-out: IC50, inhibition of MAT I",400 µM
